This is an account of results in patent US12276654B2, “Chemical probe-dependent evaluation of protein activity and uses thereof” (The University of Chicago, priority 2017, dated 2025).

One test addresses T1, MGLL (Mus musculus, UniProt O35678).
T1 construct: Then the mPBMCs were acquired from the mouse blood and subjected to family wide probe treatment; from tissue; host or cells: mouse blood PBMCs (mPBMCs)
T1 sequence (O35678 1-303): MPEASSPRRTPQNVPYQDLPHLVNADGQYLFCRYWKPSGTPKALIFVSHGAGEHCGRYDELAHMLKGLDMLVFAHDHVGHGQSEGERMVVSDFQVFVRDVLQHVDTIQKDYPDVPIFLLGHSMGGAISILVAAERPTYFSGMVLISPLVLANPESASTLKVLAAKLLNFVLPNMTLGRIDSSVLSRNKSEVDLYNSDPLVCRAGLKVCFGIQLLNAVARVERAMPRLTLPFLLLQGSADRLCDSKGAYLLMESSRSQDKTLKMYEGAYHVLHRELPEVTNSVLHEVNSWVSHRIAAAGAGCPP
The experiment in a line: sADPL in vivo target engagement in mPBMCs after oral gavage, off-target MGLL. Conditions: mice, 3 and 80 mg/kg. The source says: (§1) FIG. 25. In vivo Target Engagement. The mice were administrated with vehicle (PEG300) or NCEH1 inhibitor JW480 by oral gavage. Then the mPBMCs were acquired from the mouse blood and subjected to family wide probe treatment to profile the in vivo target engagement.
(§2) Following the in vitro study, in vivo target engagement was planned. In this experiment, the inventors orally gavaged the mice with vehicle or inhibitors, then collected the mPBMCs for probe treatment and sADPL measurement. Again, first the activity of NCEH1 was tested in mice PBMCs, and good activity was found. The delta Ct is over 7 cycles, which is over 100 fold change.

A further test concerns the target T2, FAAH (Mus musculus, UniProt O08914).
T2 construct: Then the mPBMCs were acquired from the mouse blood and subjected to family wide probe treatment; from tissue; host or cells: mouse blood PBMCs (mPBMCs)
T2 sequence (O08914 1-579): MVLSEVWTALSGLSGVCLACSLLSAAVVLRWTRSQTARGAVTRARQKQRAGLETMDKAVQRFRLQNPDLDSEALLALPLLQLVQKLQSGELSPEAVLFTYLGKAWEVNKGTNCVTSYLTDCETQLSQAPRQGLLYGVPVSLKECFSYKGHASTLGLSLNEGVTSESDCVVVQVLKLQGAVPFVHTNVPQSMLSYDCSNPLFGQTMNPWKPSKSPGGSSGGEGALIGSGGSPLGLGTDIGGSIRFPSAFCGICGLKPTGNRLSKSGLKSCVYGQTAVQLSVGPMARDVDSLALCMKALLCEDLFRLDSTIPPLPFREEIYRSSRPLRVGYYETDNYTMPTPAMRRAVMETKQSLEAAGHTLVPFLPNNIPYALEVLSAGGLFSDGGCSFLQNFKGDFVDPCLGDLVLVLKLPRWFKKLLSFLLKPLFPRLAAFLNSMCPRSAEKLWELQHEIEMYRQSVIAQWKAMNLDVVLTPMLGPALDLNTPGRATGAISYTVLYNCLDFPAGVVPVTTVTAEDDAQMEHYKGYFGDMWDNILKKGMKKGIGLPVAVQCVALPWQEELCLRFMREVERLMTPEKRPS
The test is described as follows: sADPL in vivo target engagement in mPBMCs after oral gavage, off-target FAAH. Conditions: mice, 3 and 80 mg/kg.
Text: as §1, §2

A further test deals with T3, NCEH1 (Mus musculus, UniProt Q8BLF1).
T3 construct: Then the mPBMCs were acquired from the mouse blood and subjected to family wide probe treatment; from tissue; host or cells: mouse blood PBMCs (mPBMCs)
T3 sequence (Q8BLF1 1-408): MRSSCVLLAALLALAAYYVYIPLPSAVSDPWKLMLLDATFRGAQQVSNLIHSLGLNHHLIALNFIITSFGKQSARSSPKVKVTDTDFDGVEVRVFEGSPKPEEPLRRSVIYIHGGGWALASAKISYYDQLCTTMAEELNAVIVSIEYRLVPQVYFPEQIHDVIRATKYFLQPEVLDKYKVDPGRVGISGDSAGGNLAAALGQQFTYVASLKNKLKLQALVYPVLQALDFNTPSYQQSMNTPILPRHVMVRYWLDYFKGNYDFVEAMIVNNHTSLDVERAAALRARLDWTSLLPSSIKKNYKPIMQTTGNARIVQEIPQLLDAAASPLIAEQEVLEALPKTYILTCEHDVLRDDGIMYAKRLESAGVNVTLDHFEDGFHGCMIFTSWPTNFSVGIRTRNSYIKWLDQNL
The experiment in a line: sADPL in vivo target engagement in mPBMCs after oral gavage, NCEH1. Conditions: mice.
Text: as §1, §2

Molecules are shown by their SMILES.

`CC(C)c1ccccc1OC(=O)NCCc1ccc2ccccc2c1` [JW480]: the “in vivo target engagement of off-target MGLL in mPBMCs” value at MGLL is listed as “no target engagements were observed”. In addition, at FAAH, the “in vivo target engagement of off-target FAAH in mPBMCs” value was “no target engagements were observed”. Further, the “NCEH1 activity in mPBMCs (raw Ct values)” value is on record as “lower activity” on NCEH1 (3 mg/kg (partial inhibition) vs vehicle PEG300) and “even lower activity” at NCEH1 (80 mg/kg (complete inhibition) vs vehicle PEG300).
